The text below walks through data of PMC11901561, “Free Radical Scavenging Activity and Inhibition of Enzyme-Catalyzed Oxidation by trans-aryl-Palladium Complexes” (Molecules, 2025).

A short description of assay [1]: DPPH radical scavenging test (spectrophotometric, 517 nm). To be noted: for EC50 (g Antioxidant/kg DPPH°): EC50 expressed as weight of antioxidant per kg of DPPH radical; for EC50: concentration scavenging 50% of DPPH, 90% MeOH, 30 min, mean ± SD. As for the experimental part: Radical scavenging capacity, as an indicator of the antioxidant capacity of compounds against 1,1-diphenyl-2-picrylhydrazyl (DPPH) free radicals and 2,2-azinobis (3-ethyl- enzothiazoline-6-sulfonic acid), ABTS•+ radical cations, was determined using a spectrophotometric assay. Antiradical capacity analysis was performed either on pure MeOH for ABTS or the mixture of MeOH/distilled water (90:10 v/v) for DPPH. For both ABTS and DPPH assays, the stock solutions of complexes were prepared in DMSO. Quercetin was used as an antioxidant standard in the DPPH and ABTS•+ scavenging tests. […] EC50 values were estimated using nonlinear regression. A lower EC50 value indicates higher antiradical activity.
The DPPH assay was performed according to the method developed by Brand-Williams et al. slightly modified. A solution of 1 mM DPPH in 90% (v/v) methanol was stirred for 40 min. The absorbance of the solution was adjusted to 0.650 ± 0.020 at 517 nm using fresh 90% (v/v) methanol. Then, 0.02 mL of quercetin taken as a standard or sample was mixed with 1.98 mL of DPPH solution and incubated for 30 min in the dark covered with aluminum foil. When reacting with an antioxidant, the DPPH• radical is converted into DPPH, and its color changes from purple to yellow. The antioxidant effect may be easily evaluated by observing the decrease in visible absorption. The absorbance decrease was monitored at 517 nm after 30 min of incubation with a Hewlett Packard 8453 spectrophotometer. The control consisted of 0.02 mL of DMSO in 1.98 mL of DPPH solution. A similar formula (Equation (1)) was applied to determine the DPPH radical scavenging activity.
(§1) Results were expressed as mean values ± standard deviation (SD). All measurements were replicated three times. EC50 values were calculated with GraphPad Prism 6.0 (GraphPad Software, San Diego, CA, USA) under the application of the function “log (inhibitor) versus normalized response-variable slope” after converting the concentrations into their decimal logarithm. The results were analyzed using Student’s test and a two-way analysis of variance (ANOVA), and a multiple comparison of all data was performed using Tukey’s multiple comparisons test. p < 0.0001 was considered significant.

Assay [2] is described as follows: ABTS radical scavenging test (spectrophotometric, 734 nm). As to conditions: for Radical scavenging activity against ABTS•+: inhibition curve did not converge, EC50 could not be calculated. On the procedure: Radical scavenging capacity, as an indicator of the antioxidant capacity of compounds against 1,1-diphenyl-2-picrylhydrazyl (DPPH) free radicals and 2,2-azinobis (3-ethyl- enzothiazoline-6-sulfonic acid), ABTS•+ radical cations, was determined using a spectrophotometric assay. Antiradical capacity analysis was performed either on pure MeOH for ABTS or the mixture of MeOH/distilled water (90:10 v/v) for DPPH. For both ABTS and DPPH assays, the stock solutions of complexes were prepared in DMSO. Quercetin was used as an antioxidant standard in the DPPH and ABTS•+ scavenging tests. EC50 is defined as the concentration of compound (µM) required to scavenge 50% of ABTS•+ or DPPH radicals. EC50 values were estimated using nonlinear regression. A lower EC50 value indicates higher antiradical activity.
The ABTS assay was based on the method described by Re et al.. For the generation of ABTS•+ radicals, sodium persulfate (2.45 mM) aqueous solution was mixed with ABTS (7 mM) and incubated overnight in the dark to obtain a dark colored solution. The stock solution of ABTS•+ was then diluted by adding pure methanol (100%) to obtain an absorbance of 0.70 (±0.02) at 734 nm at 30 °C. An aliquot of 0.02 mL of tested compound was added to 1.98 mL of ABTS•+, and the decrease in absorbance was monitored at 734 nm after 30 min [80]. During this reaction, the blue green ABTS radical cation is converted back into its colorless neutral form in the presence of the potential antioxidant molecule. A control consisted of 0.02 mL of DMSO in 1.98 mL of ABTS•+ solution. The reducing capacity was determined according to the following formula:% inhibition = (A control − A Sample) × 100/A Control (1)
as §1

Assay [3] has as its target T1, horseradish peroxidase (HRP) (Armoracia rusticana, UniProt P00433).
T1 sequence (P00433 31-338 limits assumed): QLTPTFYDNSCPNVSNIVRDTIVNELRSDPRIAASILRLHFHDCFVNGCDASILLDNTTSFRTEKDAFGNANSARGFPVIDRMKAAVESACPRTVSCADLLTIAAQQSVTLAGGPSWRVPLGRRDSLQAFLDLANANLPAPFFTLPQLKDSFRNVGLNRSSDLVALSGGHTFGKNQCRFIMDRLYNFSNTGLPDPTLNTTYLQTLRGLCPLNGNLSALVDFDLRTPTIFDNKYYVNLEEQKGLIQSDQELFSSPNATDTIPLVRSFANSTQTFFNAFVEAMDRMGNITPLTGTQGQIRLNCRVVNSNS
The experiment in a line: biochemical. Type of assay: biochemical. As to conditions: for EC50: HRP-H2O2/L-012 system, pH 7.5, 37 °C, 30 min, read-out: EC50 chemiluminescence assay; for Effect on chemiluminescence at lowest concentrations: 1, 5, and 10 µM, HRP-H2O2/L-012. As for the experimental part:
To investigate the effect of selected palladium (II)-based complexes on the peroxidase (HRP)-catalyzed oxidation of the chemiluminescent probe (L-012), in the presence of hydrogen peroxide (H2O2), the chemiluminescence technique was used. Briefly, plate-reader-based luminescence measurements were performed in white 96-well plates using a Fluoroskan Ascent FL microplate reader (Thermo Labsystems, Vantaa, Finland), with the temperature set at 37 °C. To 5 µL of a stock solution of HRP (1 mg/mL) in phosphate buffer (pH = 7.5) per well, we successively added 10 µL of L-012 (aqueous solution, 0.84 mmoL) and 2 µL of tested compound in 163 µL of buffer solution. The reaction was triggered by adding 20 µL hydrogen peroxide (0.19 µM) to reach the final volume of 200 µL. The light emission, produced from oxidation of L-012 by HRP/H2O2 system, in the presence or absence of the tested palladium complex, was recorded in kinetic mode for 30 min. Inhibition of the emitted light due to tested complexes was associated with higher activity. The following formula was applied to calculate the inhibiting activity of complexes towards the oxidation of L-012 catalyzed by the HRP/H2O2 system:% inhibition = (L control − L Sample) x 100/L Control
as §1

The nature of assay [4]: Antiradical efficiency (kinetic study via DPPH assay). To be noted: for AE (antiradical efficiency): AE = 1/EC50.TEC50, DPPH; for TEC50: time needed to reach the steady state at the EC50 concentration, DPPH; for Classification of antiradical efficiency: according to Sanchez-Moreno, from AE value. On the procedure: The reaction between potential antioxidants and the oxidized substrate requires a steady state which will depend on several parameters, such as the reaction time. The time needed to reach the steady state, at the concentration corresponding to EC50, is more and more frequently used and can be defined as TEC50. In brief, TEC50 was determined by plotting the recorded absorbance during the period for the EC50 concentration for the considered antioxidant compound. […] The antiradical efficiency of compounds and their classification are considered according to the work of Sanchez-Moreno [69].
On the technique in general: The DPPH test is a chemical assay of radical scavenging.

Setting [5] is: concentration scavenging 50% of ABTS•+, MeOH, 30 min, mean ± SD.

SMILES strings stand for the structures.

As for `N.N.[Cl][Pt][Cl]` [CisPt, Cisplatin, reference compound], the “Radical scavenging activity against DPPH” value in assay [1] (inhibition curve did not converge, EC50 could not be calculated) is listed as “no antioxidant activity”. In addition, the figures for the “Radical scavenging activity against ABTS•+” value in assay [2] and in assay [2] (listed as Cisplatin (CisPt)) were “no antioxidant activity” and “does not show any radical scavenging activity”, respectively.

As usually defined, the EC50 is the concentration that produces a half-maximal response. With `COc1cc[c]([Pd@SP2]([I])([PH](c2ccccc2)(c2ccccc2)c2ccccc2)[PH](c2ccccc2)(c2ccccc2)c2ccccc2)cc1` [Complex 1, Trans-Iodo(4-methoxyphenyl)bis(triphenylphosphine)Palladium], in assay [1], the “EC50 (g Antioxidant/kg DPPH°)” value was found to be 49.31 ± 39 g Antioxidant/kg DPPH° and the concentration for a half-maximal effect (EC50) turned out to be 1.14 ± 0.9 µM. For the same molecule, in assay [3], the EC50 was 3.56 ± 1.87 µM. Besides, in assay [2] (setting [5]), the EC50 amounted to 0.00578 ± 0.00098 mM. In addition, in assay [4], the “AE (antiradical efficiency)” value was 1.8437 ×10^−3 and the TEC50 is given as 11 min.

For `COc1cc[c]([Pd@SP2]([Br])([PH](c2ccccc2)(c2ccccc2)c2ccccc2)[PH](c2ccccc2)(c2ccccc2)c2ccccc2)cc1` [Complex 2, Trans-Bromo(4-methoxyphenyl)bis(triphenylphosphine)Palladium], the EC50 in assay [1] is 7.09 ± 0.94 µM. The EC50 in assay [3] stood at 1.48 ± 0.71 µM. This molecule gave an EC50 in assay [2] (setting [5]) of 0.00701 ± 0.00098 mM. In assay [4], the “AE (antiradical efficiency)” value is 0.2155 ×10^−3, the “Classification of antiradical efficiency” value was “Low” and the TEC50 is given as 16 min.

Regarding `COc1cc[c]([Pd@SP2]([Cl])([PH](c2ccccc2)(c2ccccc2)c2ccccc2)[PH](c2ccccc2)(c2ccccc2)c2ccccc2)cc1` [Complex 3, Trans-Chloro(4-methoxyphenyl) bis(triphenylphosphine)Palladium], in assay [1], the “EC50 (g Antioxidant/kg DPPH°)” value amounted to 73.49 ± 38 g Antioxidant/kg DPPH° and the response was half-maximal at 1.9 ± 0.87 µM (EC50). For the same molecule, the EC50 in assay [3] was found to be 5.8 ± 2.6 µM. The response in assay [2] (setting [5]) was half-maximal at 0.0111 ± 0.00094 mM (EC50). For the same molecule, in assay [4], the “AE (antiradical efficiency)” value is given as 0.2160 ×10^−3 and the “Classification of antiradical efficiency” value was “Low”.

For orientation: IC50 means the point on the concentration scale where inhibition reaches its midpoint. Read a low IC50 as greater potency. For the molecule `CC(=O)Oc1cc[c]([Pd@SP2]([I])([PH](c2ccccc2)(c2ccccc2)c2ccccc2)[PH](c2ccccc2)(c2ccccc2)c2ccccc2)cc1` [Complex 4, Trans-Iodo(4-acethoxyphenyl)bis(triphenylphosphine)Palladium], in assay [1], the “EC50 (g Antioxidant/kg DPPH°)” value is on record as 82,194.89 ± 33 g Antioxidant/kg DPPH° and the midpoint of the response, the EC50, lay at 1840.8 ± 0.44 µM. This molecule also displayed an IC50 in assay [1] (value given in text in mM) of 1.84 mM. In addition, in assay [3], the “Effect on chemiluminescence at lowest concentrations” value (shortened to “Effect on chemiluminescence”) was “weak effect” and the EC50 stood at 11.3 ± 3.3 µM. The molecule also came in with an EC50 in assay [2] (setting [5]) of 0.0109 ± 0.00095 mM. In addition, in assay [4], the “AE (antiradical efficiency)” value is given as 0.0002 ×10^−3, the “Classification of antiradical efficiency” value is “Low” and the TEC50 stood at 78 min.

In the case of `CC(=O)Oc1cc[c]([Pd@SP2]([Br])([PH](c2ccccc2)(c2ccccc2)c2ccccc2)[PH](c2ccccc2)(c2ccccc2)c2ccccc2)cc1` [Complex 5, Trans-Bromo(4-acethoxyphenyl)bis(triphenylphosphine)Palladium], in assay [1], the “EC50 (g Antioxidant/kg DPPH°)” value was determined as 653.57 ± 20 g Antioxidant/kg DPPH° and the EC50 was 15.5 ± 0.96 µM. Also, the EC50 in assay [3] was 5.28 ± 2.3 µM. In assay [2] (setting [5]), this molecule displayed an EC50 of 0.1358 ± 0.00025 mM. In assay [2] (value given in text in mM), this molecule showed an EC50 of 0.135 mM. In addition, in assay [4], the “AE (antiradical efficiency)” value is on record as 0.0264 ×10^−3, the “Classification of antiradical efficiency” value is listed as “Low” and the TEC50 amounted to 58 min.

Consider `CC(=O)Oc1cc[c]([Pd@SP2]([Cl])([PH](c2ccccc2)(c2ccccc2)c2ccccc2)[PH](c2ccccc2)(c2ccccc2)c2ccccc2)cc1` [Complex 6, Trans-Chloro(4-acethoxyphenyl)bis(triphenylphosphine)Palladium], for which, in assay [1], the “EC50 (g Antioxidant/kg DPPH°)” value is listed as 573.94 ± 40 g Antioxidant/kg DPPH° and the EC50 was 14.3 ± 0.92 µM. The EC50 in assay [3] stood at 6.46 ± 2.28 µM. The EC50 in assay [2] (setting [5]) was 0.0458 ± 0.00095 mM. For the same molecule, in assay [4], the “AE (antiradical efficiency)” value was 0.0328 ×10^−3, the “Classification of antiradical efficiency” value was “Low” and the TEC50 came to 53 min.

In the case of `[I][Pd]([c]1ccccc1)([PH](c1ccccc1)(c1ccccc1)c1ccccc1)[PH](c1ccccc1)(c1ccccc1)c1ccccc1` [Complex 7, Trans-Iodo(phenyl)bis(triphenylphosphine)Palladium], in assay [1], the “EC50 (g Antioxidant/kg DPPH°)” value was found to be 1882.11 ± 37 g Antioxidant/kg DPPH° and the EC50 worked out at 45.1 ± 0.95 µM. Moreover, in assay [3], the “Effect on chemiluminescence” value is on record as “weak effect” and the EC50 is 67 ± 20.1 µM. For the same molecule, in assay [2] (100 µM), the “Activity against the ABTS radical” value is reported as “good activity”. This molecule also showed an EC50 in assay [2] (setting [5]) of 0.00614 ± 0.00094 mM. Further, in assay [4], the “AE (antiradical efficiency)” value was 0.0081 ×10^−3, the “Classification of antiradical efficiency” value is “Low” and the TEC50 was determined as 66 min.

Take `[Br][Pd@SP2]([c]1ccccc1)([PH](c1ccccc1)(c1ccccc1)c1ccccc1)[PH](c1ccccc1)(c1ccccc1)c1ccccc1` [Complex 8, Trans-Bromo(phenyl)bis(triphenylphosphine)Palladium]: the “Activity against the DPPH radical” value in assay [1] (100 µM) is reported as “good activity”. Further, in assay [1], the “EC50 (g Antioxidant/kg DPPH°)” value amounted to 260.96 ± 40 g Antioxidant/kg DPPH° and a half-maximal response (EC50) required 6.64 ± 0.91 µM. Also, in assay [3], the “Effect on chemiluminescence” value was “weak effect” and the EC50 is 33.3 ± 11.7 µM. For the same molecule, in assay [2] (setting [5]), the EC50 amounted to 0.0143 ± 0.00092 mM. In addition, in assay [4], the “AE (antiradical efficiency)” value was 0.0955 ×10^−3, the “Classification of antiradical efficiency” value was “Low” and the TEC50 is listed as 40 min.
